# Results reported in paper PMC8918029 (Journal of medicinal chemistry, 2021).
# Entries after “also recorded” stand apart in the source; their conditions may differ.
# Assays:
# purified γ-secretase = purified γ-secretase (Homo sapiens, UniProt P49768); test: Inhibition constant; assay type: biochemical; conditions: double-reciprocal plots, varying C100Flag
# γ-secretase = γ-secretase (Homo sapiens, UniProt P49768); test: Cross-competition kinetic experiments between two inhibitors; assay type: biochemical; conditions: [38] = 0, 0.15, 0.30, 0.60 nM; C100 0.50 μM; parallel lines indicate cross-competition
compound,measurement,setting,value
"CC[C@@H](C)[C@@H](NC(=O)[C@H](NC(=O)[C@H](NC(=O)C(C)(C)NC(=O)CNC(=O)[C@H](NC(=O)OC(C)(C)C)C(C)C)C(C)C)C(C)C)C(=O)NC(C)(C)C(=O)N[C@@H](C(=O)N[C@@H](C(=O)NC(C)(C)C(=O)NCCCCCCCCCCC(=O)N[C@H](C(=O)N[C@@H](Cc1ccccc1)[C@H](O)CN(Cc1ccccc1)C(=O)N[C@@H](CC(C)C)C(=O)N[C@H](C(N)=O)C(C)C)C(C)C)C(C)C)[C@H](C)O [Compound 38, Boc-^DVal-Gly-Aib-^DVal-^DVal-^DIle-Aib-^DThr- ^DVal-Aib-NH(CH2)10CO-Val-Phe-ψ-Phe-Leu-Val-NH2]",Inhibition profile (mode of inhibition),purified γ-secretase,noncompetitive; also recorded: non-competitive inhibition
same,Cross-competition with TSA 1 and HPI 2 for binding,γ-secretase,could compete with both TSA 1 and HPI 2; also recorded: competes with both TSA 1 and HPI 2
